Assay results published in US4559323A, “A41030 Antibiotics” (Eli Lilly and Company, priority 1984, dated 1985).

What was measured:
[1] = test system: Peptococcus asaccharolyticus; test: Agar-dilution MIC (anaerobes); assay type: cell-based; conditions: Table 15
Experimental: (§1) The MIC values were determined by the agar-dilution method, and are recorded in Table 15, which follows.

[2] = test system: Peptococcus asaccharolyticus; test: Agar-dilution MIC (anaerobes); assay type: cell-based; conditions: Table 14; Peptococcus asaccharolyticus 1302
Pc. constellatus = test: Agar-dilution MIC (anaerobes); assay type: cell-based, Peptococcus constellatus; conditions: Table 15; Pc. constellatus 1468
Experimental: as §1

Pc. magnus = test: Agar-dilution MIC (anaerobes); assay type: cell-based, Peptococcus magnus; conditions: Table 15
Experimental: as §1

[3] = test system: Staphylococcus epidermidis; test: Agar-dilution MIC; assay type: cell-based; conditions: Table 17; 24 hours; Staphylococcus epidermidis EPI1
Description: (§2) The agar-dilution procedure described by the International Collaborative study (ICS) group was used to determine the minimum inhibitory concentrations (MIC's).

Streptococcus pneumoniae = test: Agar-dilution MIC; assay type: cell-based; conditions: Table 17; 24 hours; Streptococcus pneumoniae Park I
Description: as §2

Staphylococcus aureus = test: Agar-dilution MIC; assay type: cell-based; conditions: Table 17; 24 hours; Staphylococcus aureus X400
Propionibacterium acnes = test: Agar-dilution MIC (anaerobes); assay type: cell-based
Description: Antibiotic A41030 factors A, B and C have also been tested and found to be active against a genus of anaerobic bacteria identified as Propionibacterium acnes.

Bacteroides fragilis = test: Agar-dilution MIC (anaerobes); assay type: cell-based
Description: as §2

## A41030 factor C
[1]; Pc. asaccharolyticus 1302
  MIC: 0.125 µg/mL
[1]; Pc. asaccharolyticus 1344
  MIC: 1.0 µg/mL
[2]
  MIC: ≤ 0.25 µg/mL
Pc. constellatus
  MIC: 0.5 µg/mL
Pc. magnus; Pc. magnus 1401
  MIC: 0.25 µg/mL
Pc. magnus; Pc. magnus 1421
  MIC: 0.25 µg/mL
Pc. magnus; Pc. magnus 1477
  MIC: 0.5 µg/mL
[3]
  MIC: 0.5 µg/mL
Streptococcus pneumoniae
  MIC: 1 µg/mL
Staphylococcus aureus
  MIC: 1 µg/mL
Propionibacterium acnes; Table 13, 24-hour, P. acnes 44
  MIC: 0.125 µg/mL
Propionibacterium acnes; Table 13, 24-hour, P. acnes 79
  MIC: 0.125 µg/mL
Propionibacterium acnes; Table 13, 24-hour, P. acnes 101
  MIC: 0.125 µg/mL
Propionibacterium acnes; Table 13, 24-hour, P. acnes 103
  MIC: 0.125 µg/mL
Propionibacterium acnes; Table 13, 24-hour, P. acnes 104
  MIC: 0.25 µg/mL
Propionibacterium acnes; Table 13, 24-hour, P. acnes 105
  MIC: 0.125 µg/mL
Propionibacterium acnes; Table 13, 24-hour, P. acnes 106
  MIC: 0.125 µg/mL
Propionibacterium acnes; Table 13, 24-hour, P. acnes 107
  MIC: 0.125 µg/mL
Propionibacterium acnes; Table 13, 24-hour, P. acnes 5170
  MIC: ≤ 0.03 µg/mL
Propionibacterium acnes; Table 13, 24-hour, P. acnes 5176
  MIC: ≤ 0.03 µg/mL
Propionibacterium acnes; Table 13, 24-hour, P. acnes 5187
  MIC: 0.06 µg/mL
Propionibacterium acnes; Table 13, 24-hour, P. acnes 5191
  MIC: 0.125 µg/mL
Propionibacterium acnes; Table 13, 24-hour, P. acnes 5197
  MIC: ≤ 0.03 µg/mL
Propionibacterium acnes; Table 13, 24-hour, P. acnes 5226
  MIC: 0.125 µg/mL
Propionibacterium acnes; Table 13, 24-hour, P. acnes 5227
  MIC: 0.06 µg/mL
Propionibacterium acnes; Table 13, 24-hour, P. acnes 5228
  MIC: 1.0 µg/mL
Propionibacterium acnes; Table 13, 24-hour, P. acnes 5229
  MIC: 0.5 µg/mL
Propionibacterium acnes; Table 13, 24-hour, P. acnes 5246
  MIC: 0.06 µg/mL
Propionibacterium acnes; Table 13, 24-hour, P. acnes 5292
  MIC: 0.06 µg/mL
Propionibacterium acnes; Table 14, Propionibacterium acnes 79
  MIC: ≤ 0.25 µg/mL
Bacteroides fragilis; Table 12, 24-hour, B. fragilis 2
  MIC: 32 µg/mL
Bacteroides fragilis; Table 12, 24-hour, B. fragilis 9
  MIC: 32 µg/mL
Bacteroides fragilis; Table 12, 24-hour, B. fragilis 103
  MIC: 32 µg/mL
Bacteroides fragilis; Table 12, 24-hour, B. fragilis 104
  MIC: 32 µg/mL
Bacteroides fragilis; Table 12, 24-hour, B. fragilis 106
  MIC: 32 µg/mL
Bacteroides fragilis; Table 12, 24-hour, B. fragilis 107
  MIC: 32 µg/mL
Bacteroides fragilis; Table 12, 24-hour, B. fragilis 108
  MIC: 64 µg/mL
Bacteroides fragilis; Table 12, 24-hour, B. fragilis 110
  MIC: 64 µg/mL
Bacteroides fragilis; Table 12, 24-hour, B. fragilis 111
  MIC: 32 µg/mL
Bacteroides fragilis; Table 12, 24-hour, B. fragilis 112
  MIC: 32 µg/mL
Bacteroides fragilis; Table 12, 24-hour, B. fragilis 113
  MIC: 32 µg/mL
Bacteroides fragilis; Table 12, 24-hour, B. fragilis 1451
  MIC: 64 µg/mL
Bacteroides fragilis; Table 12, 24-hour, B. fragilis 1470
  MIC: 64 µg/mL
Bacteroides fragilis; Table 12, 24-hour, B. fragilis 1877
  MIC: 32 µg/mL
Bacteroides fragilis; Table 12, 24-hour, B. fragilis 9032
  MIC: 32 µg/mL
Bacteroides fragilis; Table 14, Bacteroides fragilis 1877
  MIC: 16 µg/mL
Bacteroides fragilis; Table 14, Bacteroides fragilis 1936B
  MIC: 32 µg/mL
